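Each compound was tested at five concentrations against cells in 96-well plates for 48 hours. Abbreviation: GI50, concentration required for 50% inhibition of growth.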 Calls of active or inactive are those of the source. Cut-off read from the data, not from the text of the source: active = GI50 up to about 1.1 µM and inactive = higher.

This is an account of results in ChEMBL document CHEMBL1201862, “PubChem BioAssay data set” (2004).

Test systems include COLO 205; DU-145; EKVX; HL-60; HOP-62; IGROV-1; LOX IMVI; M14; MDA-MB-231; Malme-3M; NCI-H460; OVCAR-3; OVCAR-4; RXF 393; SF-295; SK-MEL-28; SW-620; UACC-257; UACC-62.
Common to all, as to test: NCI-60 cell line screen, 48 h

As to `c1ccc(C2(c3cc4ccccc4[nH]3)OCCO2)nc1`, the GI50 in the experiment on COLO 205, in the experiment on DU-145, in the experiment on EKVX, with HL-60, with HOP-62 and in the experiment with IGROV-1 was > 100 µM (inactive) in each case. For the same compound, the GI50 with LOX IMVI, with M14, in the experiment on MDA-MB-231, in the experiment on Malme-3M, with NCI-H460 and in the experiment with OVCAR-3 was > 100 µM (inactive) in each case. For the same compound, the GI50 in the experiment with OVCAR-4, with RXF 393, in the experiment on SF-295, in the experiment with SK-MEL-28, with SW-620 and in the experiment on UACC-257 was > 100 µM (inactive) each time. Further, the GI50 in the experiment on UACC-62 was > 100 µM (inactive).
As for `COc1cc(C=O)cc(/C=N/n2c3ccccc3c3ccccc32)c1O`, the GI50 in the experiment with COLO 205 was 18.8 µM (inactive); in the experiment with DU-145, > 100 µM (inactive); in the experiment on EKVX it was 43.1 µM (inactive); in the experiment with HL-60, 5.81 µM (inactive); with HOP-62 it was 30.3 µM (inactive); in the experiment on LOX IMVI it was 14.2 µM (inactive). The GI50 in the experiment with M14 was 4.6 µM (inactive); in the experiment on MDA-MB-231 it was 17.4 µM (inactive); in the experiment on Malme-3M, 3.52 µM (inactive); with NCI-H460 it was 30.5 µM (inactive); with OVCAR-3, 45.2 µM (inactive); in the experiment with OVCAR-4, 74 µM (inactive). The GI50 in the experiment on RXF 393 was 25 µM (inactive); in the experiment with SF-295, 3.17 µM (inactive); with SK-MEL-28, 5.83 µM (inactive); in the experiment on SW-620, 9.73 µM (inactive); with UACC-257, 26.8 µM (inactive); in the experiment with UACC-62, 6.67 µM (inactive).
Consider `Cc1cc(Cc2cc(C)c(NC(=O)C(=O)C3CCC4=C(SC5C=CC=CC5N4)C3=O)c(C(C)C)c2)cc(C(C)C)c1NC(=O)C(=O)C1CCC2=C(SC3C=CC=CC3N2)C1=O` (configuration not stated), for which the GI50 in the experiment with COLO 205 was 44.6 µM (inactive); with DU-145, > 100 µM (inactive); with EKVX, 52.7 µM (inactive); in the experiment with HL-60 it was 40.6 µM (inactive); in the experiment with HOP-62, 94.4 µM (inactive); in the experiment with IGROV-1 it was 34 µM (inactive). For the same compound, the GI50 was 96.6 µM (inactive) with LOX IMVI; > 100 µM (inactive) with M14; 95.9 µM (inactive) in the experiment with MDA-MB-231; 53.1 µM (inactive) with NCI-H460; 35 µM (inactive) in the experiment on OVCAR-3; 33.7 µM (inactive) in the experiment with OVCAR-4. For the same compound, the GI50 with RXF 393 is 44 µM (inactive); with SF-295 it was 69.7 µM (inactive); with SK-MEL-28 it was > 100 µM (inactive); with SW-620 it was 38 µM (inactive); in the experiment on UACC-257 it was > 100 µM (inactive); with UACC-62 it was 53.1 µM (inactive).
Consider `COC1CC(C)C(OC)C2=CC(=O)C=C(NC(=O)/C(C)=C/C=C\C(C)C(OC(N)=O)/C(C)=C\C(C)C1OC)C2=O` (configuration not stated), for which the GI50 was 0.0414 µM (active) in the experiment with COLO 205; 0.643 µM (active) in the experiment on DU-145; 11 µM (inactive) in the experiment on EKVX; 0.182 µM (active) in the experiment on HL-60; 1.48 µM (inactive) in the experiment on HOP-62; 2.97 µM (inactive) in the experiment with IGROV-1. For the same compound, the GI50 with LOX IMVI was 0.379 µM (active); in the experiment on M14 it was 0.589 µM (active); with Malme-3M, 0.334 µM (active); in the experiment on NCI-H460 it was 0.422 µM (active); in the experiment on OVCAR-3, 0.313 µM (active); in the experiment on OVCAR-4, 0.834 µM (active). Also, the GI50 in the experiment with RXF 393 was 0.337 µM (active); in the experiment on SF-295, 1.07 µM (active); in the experiment on SK-MEL-28, 0.166 µM (active); in the experiment with SW-620, 0.0485 µM (active); in the experiment on UACC-257 it was 0.261 µM (active); in the experiment with UACC-62, 0.492 µM (active).
Take `c1ccc(CCN2CCCCCC2)nc1`: the GI50 is > 100 µM (inactive) in the experiment with COLO 205; > 100 µM (inactive) in the experiment on DU-145; 66.8 µM (inactive) in the experiment on EKVX; > 100 µM (inactive) with HOP-62; > 100 µM (inactive) in the experiment with IGROV-1; > 100 µM (inactive) with LOX IMVI. The GI50 in the experiment with M14, in the experiment on MDA-MB-231, in the experiment with Malme-3M, in the experiment on NCI-H460, in the experiment with OVCAR-3 and in the experiment on OVCAR-4 was > 100 µM (inactive) throughout. Further, the GI50 with RXF 393, with SF-295, in the experiment with SK-MEL-28, in the experiment on SW-620 and in the experiment on UACC-62 was > 100 µM (inactive) each time.
For the compound `CC(CN(C)C)/C(=N\Nc1ccccc1)c1ccccc1` (configuration not stated), the GI50 in the experiment with COLO 205 was 1.03 µM (active); in the experiment with EKVX, 1.3 µM (inactive); in the experiment with HL-60, 0.419 µM (active); in the experiment with HOP-62, 0.767 µM (active); in the experiment on IGROV-1, 2.09 µM (inactive); in the experiment on LOX IMVI, 0.0456 µM (active). The GI50 with M14 was 1.46 µM (inactive); in the experiment on Malme-3M, 10.7 µM (inactive); with NCI-H460 it was 0.171 µM (active); with OVCAR-3, 1.16 µM (inactive); in the experiment with OVCAR-4, 0.794 µM (active); in the experiment on RXF 393, 11.4 µM (inactive). For the same compound, the GI50 is 0.0436 µM (active) in the experiment on SF-295; 2.02 µM (inactive) in the experiment with SK-MEL-28; 0.142 µM (active) in the experiment with SW-620; 2.12 µM (inactive) with UACC-257; 0.0755 µM (active) in the experiment on UACC-62.
With `NCCOc1ccc(/C(=C(/Cl)c2ccccc2)c2ccccc2)cc1`, the GI50 in the experiment with COLO 205 is 1.89 µM (inactive); in the experiment on EKVX, 15.1 µM (inactive); in the experiment on HL-60, 3.74 µM (inactive); in the experiment on HOP-62, 17.9 µM (inactive); with IGROV-1, 14.4 µM (inactive); in the experiment on LOX IMVI, 4.05 µM (inactive). The GI50 is 2.26 µM (inactive) in the experiment on M14; 9.27 µM (inactive) with Malme-3M; 7.14 µM (inactive) with NCI-H460; 12.4 µM (inactive) with OVCAR-3; 13 µM (inactive) in the experiment with OVCAR-4; 4.03 µM (inactive) in the experiment on RXF 393. The GI50 in the experiment with SF-295 was 14.4 µM (inactive); with SK-MEL-28, 5.66 µM (inactive); in the experiment on SW-620, 4.19 µM (inactive); in the experiment with UACC-257 it was 10.8 µM (inactive); with UACC-62 it was 11 µM (inactive).
Regarding `Cc1cnoc1/N=C1\C=C(Nc2oncc2C)C(=O)c2ccccc21`, the GI50 with COLO 205 was > 100 µM (inactive); in the experiment on EKVX it was > 100 µM (inactive); with HL-60 it was > 100 µM (inactive); with HOP-62 it was > 100 µM (inactive); in the experiment with IGROV-1, > 100 µM (inactive); in the experiment with LOX IMVI, 23.3 µM (inactive). Moreover, the GI50 was > 100 µM (inactive) in the experiment with M14; > 100 µM (inactive) in the experiment with Malme-3M; > 100 µM (inactive) in the experiment on NCI-H460; 9.86 µM (inactive) with OVCAR-3; > 100 µM (inactive) with OVCAR-4; > 100 µM (inactive) with RXF 393. Moreover, the GI50 with SF-295 was > 100 µM (inactive); with SK-MEL-28 it was > 100 µM (inactive); with SW-620, > 100 µM (inactive); in the experiment on UACC-257 it was 65.6 µM (inactive); in the experiment on UACC-62, 48.3 µM (inactive).
With `Cn1cccc(C(=O)c2ccccc2)c1=O`, the GI50 with COLO 205, in the experiment on EKVX, with HL-60, with HOP-62, in the experiment with IGROV-1 and with LOX IMVI was > 100 µM (inactive) in each case. For the same compound, the GI50 in the experiment with M14, in the experiment on Malme-3M, in the experiment on NCI-H460, with OVCAR-3, in the experiment on OVCAR-4 and in the experiment on RXF 393 was > 100 µM (inactive) throughout. Besides, the GI50 in the experiment with SF-295, with SK-MEL-28, with SW-620, with UACC-257 and in the experiment with UACC-62 was > 100 µM (inactive) throughout.
Turning to `CCOC1(COP(=O)(OCc2ccccc2)OCc2ccccc2)COC(COP(=O)(OCc2ccccc2)OCc2ccccc2)(OCC)CO1` (configuration not stated), the GI50 in the experiment on COLO 205 is > 100 µM (inactive); in the experiment with EKVX, 2.32 µM (inactive); in the experiment with HL-60 it was 30.8 µM (inactive); with HOP-62 it was > 100 µM (inactive); in the experiment with IGROV-1, > 100 µM (inactive); in the experiment on LOX IMVI, > 100 µM (inactive). The GI50 is > 100 µM (inactive) in the experiment on M14; > 100 µM (inactive) in the experiment on Malme-3M; 95.7 µM (inactive) in the experiment on NCI-H460; > 100 µM (inactive) in the experiment with OVCAR-3; 4.61 µM (inactive) with OVCAR-4; 4.33 µM (inactive) with RXF 393. Also, the GI50 with SF-295, with SK-MEL-28, with SW-620, in the experiment on UACC-257 and with UACC-62 was > 100 µM (inactive) throughout.
Consider `CC1=C(C(=O)Nc2ccccc2C)C(c2ccc([N+](=O)[O-])cc2)C(C(=O)Nc2ccccc2C)=C(C)N1`, for which the GI50 was 29.9 µM (inactive) in the experiment on COLO 205; > 100 µM (inactive) in the experiment with EKVX; 19.8 µM (inactive) with HL-60; > 100 µM (inactive) in the experiment with HOP-62; 78 µM (inactive) in the experiment on IGROV-1; 43.4 µM (inactive) in the experiment with LOX IMVI. Moreover, the GI50 with M14 is 39.9 µM (inactive); in the experiment with Malme-3M, 42.7 µM (inactive); in the experiment on NCI-H460, 44.9 µM (inactive); with OVCAR-3, 40.1 µM (inactive); in the experiment on OVCAR-4 it was 41.8 µM (inactive); with RXF 393, 16.4 µM (inactive). The GI50 in the experiment on SF-295 is 58.2 µM (inactive); with SK-MEL-28 it was 63.4 µM (inactive); in the experiment with SW-620, 93.3 µM (inactive); with UACC-257 it was 55.3 µM (inactive); in the experiment on UACC-62, 43.9 µM (inactive).
